# Results as given in US20080045611A1, “Methods for the therapeutic use of a carbonic anhydrase inhibitor for reducing spinal cord edema” (priority 2006, published 2008).
# Experiment: Case: patient with ascending spinal cord edema after thoracic fracture and spinal cord injury, treated intravenously
# Format: in vivo
# Conditions: spinal cord edema on MRI after laminectomy and surgical fixation, intravenous dose of 500 mg in sterile saline, within a short period
# Description: A patient, suffers a fractured thoracic vertebrae and spinal cord injury. […] An intravenous dose of 500 mg of acetazolamide in sterile saline is administered.
compound,measurement,value
CC(=O)Nc1nnc(S(N)(=O)=O)s1 [acetazolamide],neurological outcome (sensory and motor functions),regains sensory and motor functions in their upper extremities
